Test results published in patent publication US20100056601A1, “Control agent containing N-Substituted indole derivative for acarian parasitic on animal” (Nippon Kayaku Kabushiki Kaisha, priority 2004, published 2010).
Read-outs that look alike come from different tables or passages of the source.

Assays:
[1] = system: hatched larvae of Haemaphysalis longicornis; assay: In vitro control effect on acarians, treated Pasteur's pipette test (Test Example 1); assay type: in vivo
Protocol: Neoglamine was added to the emulsion of Example 1 in an amount of 0.01% and the resulting mixture was diluted with tap water to each concentration shown in Table 2. After a commercial 0.5×15 cm Pasteur's pipette was immersed in the dilution for 30 seconds, it was vertically stood on cotton and air-dried. The head of the air-dried Pasteur's pipette was plugged with cotton, and 10 hatched larvae of Haemaphysalis longicornis were sucked from the cotton-plugged end side by the use of a suction pump and then the other end was sealed with putty. After the suction, the pipette was allowed to stand in a desiccator containing a saturated aqueous disodium hydrogenphosphate solution and maintained at 23° C. Observation was carried out after 2 days and after 4 days. Fipronil was used as a positive control.

[2] = system: hatched larvae of Haemaphysalis longicornis; assay: In vivo control effect on ticks on rabbit ears, spot-on treatment (Test Example 2)
Protocol: About 40 hatched larvae of Haemaphysalis longicornis were inoculated on the ears of a rabbit by the use of a cloth bag, made parasitic on the rabbit and allowed to suck the blood. After 24 hours, the cloth bag was taken off and ticks sucking the blood were counted. […] The left ear was not treated. Three hours, 1 day and 2 days after the spot-on treatment, the living ticks on each of the right and left ears were counted. As a control animal, there was used a rabbit whose right ear had been treated with only the base ingredient for preparation for spot-on treatment and whose left ear had been not treated.

std:ddy strain male mice = assay: Toxicity to mouse, administration into the stomach (Test Example 3); assay type: in vivo; details: into the stomach in olive oil
Protocol: The compound listed in Table 1 or Fipronil was dissolved in olive oil to a predetermined concentration, and the resulting solution was directly administered into the stomachs of std:ddy strain male mice by the use of a probe. The dose was 30 mg/kg or 100 mg/kg. Whether the mice were alive or dead was observed 3 hours, 1 day, 7 days and 14 days after the administration.

[3] = system: two-spotted spider mite (Tetranychus urticae); assay: Comparative test: insecticidal effect on two-spotted spider mite, leaf immersion (Test Example 5); assay type: in vivo; details: for insecticidal activity against the two-spotted spider mites (in words): 200 ppm, 2 days after immersion; for mortality at 200 ppm: Tetranychus urticae, in Phaseolus vulgaris, 48 h, read-out: Mortality after 2 days (%)
Protocol: Twenty adult female two-spotted spider mites were released on the leaves of a potted kidney bean plant. One day after the release, the kidney bean leaves were immersed for several seconds in a chemical solution obtained by diluting a 20% emulsion of each compound with tap water to a concentration of 200 ppm. After air-dryness, the leaves were placed in a room thermostated at 25° C. Two days after the immersion, whether the adult two-spotted spider mites on the leaves were alive or dead were judged and the dead and alive were counted. The mortality was calculated.

cat = assay: Administration to a cat, spot-on dropping, clinical symptom (Test Example 4); details: for Clinical symptom: 0.5 ml spot-on
From the text: After the dropping, the clinical symptom of the cat was observed.

[4] = Haemaphysalis longicornis, 48 h, read-out: Mortality after 2 days
[5] = Haemaphysalis longicornis, 96 h, read-out: Mortality after 4 days
[6] = left ear (not treated), right ear spot-on 0.1 ml of 20% solution
[7] = right ear (treated), spot-on 0.1 ml of 20% solution

FC(Cl)(Cl)Sc1cn(-c2c(Cl)cc(C(F)(F)F)cc2Cl)c2ccccc12 [Compound 17, 1-(2,6-dichloro-4-trifluoromethylphenyl)-3-(dichlorofluoromethylthio)indole]
mortality at 0.1 ppm [1, 4]: 0% | mortality at 1 ppm [1, 4]: 20% | mortality at 10 ppm [1, 4]: 100% | mortality at 0.1 ppm [1, 5]: 0% | mortality at 1 ppm [1, 5]: 80% | mortality at 10 ppm [1, 5]: 100% | extermination of ticks on the treated right ear (in words) ([2]; in 3 hours after the treatment): quickly exterminated ticks on the right ear | extermination of ticks on the untreated left ear (in words) ([2]; in 1 day after the treatment): also exterminated ticks on the left ear | Number of living ticks, before dropping ([2]; left ear (not treated), baseline before spot-on on right ear): 15 | Number of living ticks, after 3 hours [2, 6]: 15 | Number of living ticks, after 1 day [2, 6]: 0 | Number of living ticks, after 2 days [2, 6]: 0 | Number of living ticks, before dropping ([2]; right ear (treated ear), baseline before spot-on of 0.1 ml 20% solution): 15 | Number of living ticks, after 3 hours [2, 7]: 3 | Number of living ticks, after 1 day [2, 7]: 1 | Number of living ticks, after 2 days [2, 7]: 0 | Cumulative mortality after 3 hours (std:ddy strain male mice; 30 mg/kg): 0/5 | Cumulative mortality after 1 day (std:ddy strain male mice; 30 mg/kg): 0/5 | Cumulative mortality after 7 days (std:ddy strain male mice; 30 mg/kg): 0/5 | Cumulative mortality after 14 days (std:ddy strain male mice; 30 mg/kg): 0/5 | Cumulative mortality after 3 hours (std:ddy strain male mice; 100 mg/kg): 0/5 | Cumulative mortality after 1 day (std:ddy strain male mice; 100 mg/kg): 0/5 | Cumulative mortality after 7 days (std:ddy strain male mice; 100 mg/kg): 0/5 | Cumulative mortality after 14 days (std:ddy strain male mice; 100 mg/kg): 0/5 | insecticidal activity against the two-spotted spider mites (in words) [3]: no insecticidal activity | mortality at 200 ppm [3]: 0% | Clinical symptom (cat; cat, dropping concentration 10%): No sign was recognized | Clinical symptom (cat; cat, dropping concentration 20%): No sign was recognized | Clinical symptom (cat; cat, dropping concentration 30%): No sign was recognized | abnormal sign due to the spot-on dropping (cat; cat, 10, 20 or 30% liquid drops): no abnormal sign | toxicity to cat (in words) (cat; cat, spot-on 10, 20 or 30% liquid drops): only low toxicity

FC(F)(F)Sc1cn(-c2c(Cl)cc(C(F)(F)F)cc2Cl)c2ccccc12 [Compound 25, 1-(2,6-dichloro-4-trifluoromethylphenyl)-3-(trifluoromethylthio)indole]
mortality at 0.01 ppm [1, 4]: 30% | mortality at 0.1 ppm [1, 4]: 100% | mortality at 1 ppm [1, 4]: 100% | mortality at 10 ppm [1, 4]: 100% | mortality at 0.01 ppm [1, 5]: 60% | mortality at 1 ppm [1, 5]: 100% | mortality at 10 ppm [1, 5]: 100% | Cumulative mortality after 3 hours (std:ddy strain male mice; 30 mg/kg): 0/5 | Cumulative mortality after 1 day (std:ddy strain male mice; 30 mg/kg): 0/5 | Cumulative mortality after 7 days (std:ddy strain male mice; 30 mg/kg): 0/5 | Cumulative mortality after 14 days (std:ddy strain male mice; 30 mg/kg): 0/5 | Cumulative mortality after 3 hours (std:ddy strain male mice; 100 mg/kg): 0/5 | Cumulative mortality after 1 day (std:ddy strain male mice; 100 mg/kg): 0/5 | Cumulative mortality after 7 days (std:ddy strain male mice; 100 mg/kg): 0/5 | Cumulative mortality after 14 days (std:ddy strain male mice; 100 mg/kg): 0/5 | insecticidal activity against the two-spotted spider mites (in words) [3]: no insecticidal activity | mortality at 200 ppm [3]: 0%

N#Cc1nn(-c2c(Cl)cc(C(F)(F)F)cc2Cl)c(N)c1[S+]([O-])C(F)(F)F (centres unmarked) [Fipronil, 5-amino-1-(2,6-dichloro-4-(trifluoromethyl)phenyl)-4-((trifluoromethyl)sulfinyl)-1H-pyrazole-3-carbonitrile, reference compound]
mortality at 0.1 ppm ([1]; 48 h, 0.1 ppm, Haemaphysalis longicornis larvae, 23° C., read-out: Mortality after 2 days): 30% | mortality at 1 ppm ([1]; 48 h, 1 ppm, Haemaphysalis longicornis larvae, 23° C., read-out: Mortality after 2 days): 100% | mortality at 10 ppm ([1]; 48 h, 10 ppm, Haemaphysalis longicornis larvae, 23° C., read-out: Mortality after 2 days): 100% | mortality at 0.1 ppm ([1]; 96 h, 0.1 ppm, Haemaphysalis longicornis larvae, 23° C., read-out: Mortality after 4 days): 60% | mortality at 1 ppm ([1]; 96 h, 1 ppm, Haemaphysalis longicornis larvae, 23° C., read-out: Mortality after 4 days): 100% | mortality at 10 ppm ([1]; 96 h, 10 ppm, Haemaphysalis longicornis larvae, 23° C., read-out: Mortality after 4 days): 100% | Cumulative mortality after 3 hours (std:ddy strain male mice; 30 mg/kg): 0/5 | Cumulative mortality after 1 day (std:ddy strain male mice; 30 mg/kg): 1/5 | Cumulative mortality after 7 days (std:ddy strain male mice; 30 mg/kg): 1/5 | Cumulative mortality after 14 days (std:ddy strain male mice; 30 mg/kg): 1/5 | Cumulative mortality after 3 hours (std:ddy strain male mice; 100 mg/kg): 1/5 | Cumulative mortality after 1 day (std:ddy strain male mice; 100 mg/kg): 5/5 | Cumulative mortality after 7 days (std:ddy strain male mice; 100 mg/kg): 5/5 | Cumulative mortality after 14 days (std:ddy strain male mice; 100 mg/kg): 5/5
